# PMC7391767, “Molecular mechanisms underlying menthol binding and activation of TRPM8 ion channel” (Nature Communications, 2020)
# Entries after “also recorded” stand apart in the source; their conditions may differ.
# Assays:
# TRPM8 = target: T1, TRPM8 (Mus musculus, UniProt Q8R4D5); assay: whole-cell patch-clamp recording in response to a voltage ramp; format: cell-based; details: beyond −200 mV; near saturating menthol (0.5 mM)
# T1 construct: expressed in transfected cells; host or cells: HEK293T
# T1 sequence (Q8R4D5 whole entry): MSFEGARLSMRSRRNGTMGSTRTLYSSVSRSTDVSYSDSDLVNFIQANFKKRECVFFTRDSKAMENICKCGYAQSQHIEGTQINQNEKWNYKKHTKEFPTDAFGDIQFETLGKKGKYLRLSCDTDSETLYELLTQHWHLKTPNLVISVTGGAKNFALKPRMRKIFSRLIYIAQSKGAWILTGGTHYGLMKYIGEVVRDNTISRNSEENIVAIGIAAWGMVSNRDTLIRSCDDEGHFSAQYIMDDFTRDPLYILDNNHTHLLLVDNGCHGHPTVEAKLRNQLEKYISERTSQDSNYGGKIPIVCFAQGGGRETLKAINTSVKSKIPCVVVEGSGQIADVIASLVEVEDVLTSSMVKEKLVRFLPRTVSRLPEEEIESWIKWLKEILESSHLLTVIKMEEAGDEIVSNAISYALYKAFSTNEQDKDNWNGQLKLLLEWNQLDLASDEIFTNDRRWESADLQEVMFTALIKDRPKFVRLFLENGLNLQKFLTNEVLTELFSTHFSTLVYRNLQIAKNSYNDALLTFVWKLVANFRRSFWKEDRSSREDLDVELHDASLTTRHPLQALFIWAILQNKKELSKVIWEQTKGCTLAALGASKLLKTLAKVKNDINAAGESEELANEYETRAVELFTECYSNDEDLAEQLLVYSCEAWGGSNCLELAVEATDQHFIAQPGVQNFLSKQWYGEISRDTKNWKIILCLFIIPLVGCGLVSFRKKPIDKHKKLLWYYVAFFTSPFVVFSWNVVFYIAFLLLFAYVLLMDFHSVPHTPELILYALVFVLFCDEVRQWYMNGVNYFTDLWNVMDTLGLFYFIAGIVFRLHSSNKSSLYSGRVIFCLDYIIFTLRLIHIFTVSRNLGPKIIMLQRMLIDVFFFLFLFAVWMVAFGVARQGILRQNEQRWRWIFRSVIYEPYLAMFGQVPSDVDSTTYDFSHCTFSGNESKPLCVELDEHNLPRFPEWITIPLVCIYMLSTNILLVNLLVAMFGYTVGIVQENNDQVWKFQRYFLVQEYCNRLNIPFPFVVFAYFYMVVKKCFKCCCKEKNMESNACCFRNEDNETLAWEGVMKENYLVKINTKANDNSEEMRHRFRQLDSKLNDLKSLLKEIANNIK
# Description: Supplementary Figure 8. Deep hyperpolarization antagonized me nthol activation of TRPM8 but not capsaicin activation of TRPV1. ( a) Representative whole-cell patch- clamp recording of menthol activation of TRPM8 in response to a voltage ramp. In the hyperpolarized voltage range, TRPM8 current increased first and then decreased […]
# mM menthol. (b) Representative whole- cell patch- clamp recording of capsaicin activation of TRPV1 in response to a voltage ramp. In the hyperpolarized voltage range, TRPV1 current kept increasing linearly with the lowering of membrane potential, which […]
# (1 picture or pasted object on this page, not shown here)
# [1] = target: T2, TRPM8 point mutants at sites 840, 910, 916, 972 (Mus musculus, UniProt Q8R4D5, V972I); assay: Φ analysis based on single-channel recordings; format: cell-based; details: TRPM8 972I, mean of single-channel recordings
# T2 construct: expressed in transfected cells; host or cells: HEK293T
# T2 sequence (Q8R4D5 whole entry V972I): as the sequence (Q8R4D5 whole entry) above, with V972I counted along it
# Method: (§1) Patch-clamp recordings were performed with a HEKA EPC10 amplifier controlled by PatchMaster software (HEKA). Whole-cell recordings were performed at ±80 mV. Patch pipettes were prepared from borosilicate glass and fire-polished to resistance of ~4 MΩ. For whole-cell recording, serial resistance was compensated by 60%. For single-channel recordings, patch pipettes were fire-polished to a higher resistance of 6-to-10 MΩ and then recorded in the inside-out configuration. To maximize the chance of obtaining a patch with only one channel, single-channel recordings were performed about 8 h after transfection. A solution with 130 mM NaCl, 10 mM glucose, 0.2 mM EDTA, and 3 mM HEPES (pH 7.2) was used in both bath and pipette for either whole-cell or single-channel recordings. Membrane potential was clamped at +80 mV for single-channel recordings. Current was sampled at 10 kHz and filtered at 2.9 kHz. All recordings were performed at room temperature (22 °C) with the maximum variation of 1 °C.
# (§2) We followed the principle of Φ-analysis described in published literatures in detail[17],[36],[48]. […] At such a high concentration, only the patches showing the activities of one channel was used for analysis. Single-channel data were processed by the QuB software[49] version 1.4 (ref. [50]). Opening and closing events were detected during idealization with the half amplitude method. Using the simple close ↔ open model (Fig. 6a), the forward and backward rates were determined with a deadtime of 0.3-to-0.4 ms. The equilibrium constant was calculated as the ratio of forward and backward rates. Opening rates and equilibrium constants for each mutant at the same residue site were plotted in log scale (Brønsted plot) before fitting with a linear function to determine the Φ value.
# [2] = target: T3, TRPM8 point mutants at sites 840, 910, 916, 972 (Mus musculus, UniProt Q8R4D5, A910V); assay: Φ analysis based on single-channel recordings; format: cell-based; details: TRPM8 910V, mean of single-channel recordings (1mM, 500um)
# T3 construct: expressed in transfected cells; host or cells: HEK293T
# T3 sequence (Q8R4D5 whole entry A910V): as the sequence (Q8R4D5 whole entry) above, with A910V counted along it
# Method: as §1, §2
# [3] = target: T4, TRPM8 point mutants at sites 840, 910, 916, 972 (Mus musculus, UniProt Q8R4D5, T840D); assay: Φ analysis based on single-channel recordings; format: cell-based; details: TRPM8 840D, mean of single-channel recordings (500um, 1mM)
# T4 construct: expressed in transfected cells; host or cells: HEK293T
# T4 sequence (Q8R4D5 whole entry T840D): as the sequence (Q8R4D5 whole entry) above, with T840D counted along it
# Method: as §1, §2
# [4] = target: T5, TRPM8 point mutants at sites 840, 910, 916, 972 (Mus musculus, UniProt Q8R4D5); assay: Φ analysis based on single-channel recordings; format: cell-based
# T5 construct: expressed in transfected cells; host or cells: HEK293T
# T5 sequence (Q8R4D5 whole entry, change not shown): as the sequence (Q8R4D5 whole entry) above
# Method: as §1, §2
# [5] = target: T6, TRPM8 point mutants at sites 840, 910, 916, 972 (Mus musculus, UniProt Q8R4D5, A910I); assay: Φ analysis based on single-channel recordings; format: cell-based; details: TRPM8 910I, mean of single-channel recordings (1mM)
# T6 construct: expressed in transfected cells; host or cells: HEK293T
# T6 sequence (Q8R4D5 whole entry A910I): as the sequence (Q8R4D5 whole entry) above, with A910I counted along it
# Method: as §1, §2
# [6] = target: T7, TRPM8 point mutants at sites 840, 910, 916, 972 (Mus musculus, UniProt Q8R4D5, P916F); assay: Φ analysis based on single-channel recordings; format: cell-based; details: TRPM8 916F, mean of single-channel recordings
# T7 construct: expressed in transfected cells; host or cells: HEK293T
# T7 sequence (Q8R4D5 whole entry P916F): as the sequence (Q8R4D5 whole entry) above, with P916F counted along it
# Method: as §1, §2
# [7] = test system: TRPM8 point mutants at sites 840, 910, 916, 972; assay: Φ analysis based on single-channel recordings; format: cell-based, mouse; details: for Φ value: 5 mM menthol, single-channel, +80 mV
# Method: as §1, §2
# [8] = target: T8, TRPM8 point mutants at sites 840, 910, 916, 972 (Mus musculus, UniProt Q8R4D5, A910G); assay: Φ analysis based on single-channel recordings; format: cell-based; details: TRPM8 910G, mean of single-channel recordings (200u, 500u, 1mM)
# T8 construct: expressed in transfected cells; host or cells: HEK293T
# T8 sequence (Q8R4D5 whole entry A910G): as the sequence (Q8R4D5 whole entry) above, with A910G counted along it
# Method: as §1, §2
# [9] = target: T9, TRPM8 point mutants at sites 840, 910, 916, 972 (Mus musculus, UniProt Q8R4D5, T840N); assay: Φ analysis based on single-channel recordings; format: cell-based; details: TRPM8 840N, mean of single-channel recordings (1mM, 5mM)
# T9 construct: expressed in transfected cells; host or cells: HEK293T
# T9 sequence (Q8R4D5 whole entry T840N): as the sequence (Q8R4D5 whole entry) above, with T840N counted along it
# Method: as §1, §2
# wild-type TRPM8 = target: T10, wild-type TRPM8 (Mus musculus, UniProt Q8R4D5); assay: open probability from noise analysis of macroscopic current and single-channel recordings; format: cell-based
# T10 construct: expressed in transfected cells; host or cells: HEK293T
# T10 sequence (Q8R4D5 whole entry): as the sequence (Q8R4D5 whole entry) above
# Method: as §1
# From single-channel recordings, the open probability (Po) was calculated after events detection with a hidden Markov approach in the software QuB[49] (http://www.qub.buffalo.edu/). A dead time of 0.32 ms was imposed. As a complementary approach, Po was also estimated from noise analysis[52] of whole-cell recordings. Briefly, the mean current amplitude (I), the squared deviations in current amplitude from the mean value (σ^2), and the single-channel current (i) were measured experimentally from a membrane patch of ion channels. Then the number of ion channels clamped in that patch (N) was determined as3 N=I^2/i⋅I−σ^2.
# The maximum current when each of ion channel is at the open state with a Po of 1 is equal to i × N. Then the open probability was calculated as the ratio between the measured macroscopic current and the maximum current calculated by noise analysis. To estimate channel conductance, current amplitude was estimated from all-point histogram of single-channel recordings.
# [10] = TRPM8 840T (recordings 1S-AF/2S-AF, 500um, 1mM)
# [11] = TRPM8 910A (recordings 1S-AF/2S-AF, 500um, 1mM)
# [12] = TRPM8 916P (recordings 1S-AF/2S-AF, 500um, 1mM)
# [13] = TRPM8 972V (recordings 1S-AF/2S-AF, 500um, 1mM)
# [14] = TRPM8 840A, mean of single-channel recordings (500um)
# [15] = TRPM8 910T, mean of single-channel recordings (1mM, 5mM)
# [16] = TRPM8 972L, mean of single-channel recordings
structure (smiles),measurement,setting,value
"CC(C)[C@@H]1CC[C@@H](C)C[C@H]1O [menthol, (−)-menthol]",effect of deep hyperpolarization on ligand-activated channel,TRPM8,decreased towards zero; also recorded: closed the channel
same,logKeqave,[1],-0.5254
same,logKeqave,[2],0.7613
same,ratesave (mean log forward rates),[2],3.348
same,logKeqave,[3],0.4314
same,ratesave (mean log forward rates),[3],3.1375
same,logKeqave,[4]; [10],-0.1349
same,ratesave (mean log forward rates),[4]; [10],2.916
same,logKeqave,[4]; [11],-0.1349
same,ratesave (mean log forward rates),[4]; [11],2.916
same,logKeqave,[4]; [12],-0.1349
same,logratesave,[4]; [12],2.916
same,logKeqave,[4]; [13],-0.1349
same,logratesave,[4]; [13],2.916
same,logKeqave,[5],-1.154
same,ratesave (mean log forward rates),[5],2.135
same,logKeqave,[6],0.4532
same,logratesave,[6],3.166
same,logKeqave,[7]; [14],-0.9923
same,ratesave (mean log forward rates),[7]; [14],2.126
same,logKeqave,[7]; [15],0.1885
same,ratesave (mean log forward rates),[7]; [15],3.0067
same,logKeqave,[7]; [16],0.4054
same,logratesave,[7]; [16],3.126
same,phi from single-channel recording,[7]; site 840,0.7339
same,Φ value,[7]; site 840,0.73
same,phi from single-channel recording,[7]; site 910,0.6331
same,Φ value,[7]; site 910,0.63
same,phi from single-channel recording,[7]; site 916,0.4253
same,Φ value,[7]; site 916,0.42
same,phi from single-channel recording,[7]; site 972,0.711
same,Φ value,[7]; site 972,0.71
same,logKeqave,[8],-0.02911
same,ratesave (mean log forward rates),[8],2.893
same,logKeqave,[9],0.1255
same,ratesave (mean log forward rates),[9],3.014
same,agonist nature,"wild-type TRPM8; noise analysis of macroscopic current, confirmed in single-channel recordings",partial agonist
same,maximum open probability (Po max),"wild-type TRPM8; wild-type TRPM8, near saturating concentration (menthol 500 µM)",0.81 ± 0.03
